Measurements: ChEMBL document CHEMBL2216752, “Carnitine palmitoyltransferase (CPT) modulators: a medicinal chemistry perspective on 35 years of research” (J Med Chem, 2011)

How the values were obtained:
[1] = biological target: T1, Mitochondrial carnitine/acylcarnitine carrier protein (Homo sapiens, UniProt O43772); experiment: Inhibition of CACT
T1 sequence (O43772 whole entry): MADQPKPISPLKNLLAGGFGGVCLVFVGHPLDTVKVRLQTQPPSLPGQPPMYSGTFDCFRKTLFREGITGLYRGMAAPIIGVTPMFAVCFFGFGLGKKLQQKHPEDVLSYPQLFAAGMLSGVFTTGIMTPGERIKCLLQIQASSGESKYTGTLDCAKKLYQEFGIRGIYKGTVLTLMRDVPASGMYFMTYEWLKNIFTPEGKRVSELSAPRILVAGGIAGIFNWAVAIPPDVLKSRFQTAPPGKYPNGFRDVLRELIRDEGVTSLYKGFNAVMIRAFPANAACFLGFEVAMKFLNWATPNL

[2] = Inhibition of rat FAO
[3] = biological target: T2, Carnitine O-palmitoyltransferase 1, muscle isoform (Homo sapiens, UniProt Q92523); experiment: Inhibition of human CPT1B
T2 sequence (Q92523 whole entry): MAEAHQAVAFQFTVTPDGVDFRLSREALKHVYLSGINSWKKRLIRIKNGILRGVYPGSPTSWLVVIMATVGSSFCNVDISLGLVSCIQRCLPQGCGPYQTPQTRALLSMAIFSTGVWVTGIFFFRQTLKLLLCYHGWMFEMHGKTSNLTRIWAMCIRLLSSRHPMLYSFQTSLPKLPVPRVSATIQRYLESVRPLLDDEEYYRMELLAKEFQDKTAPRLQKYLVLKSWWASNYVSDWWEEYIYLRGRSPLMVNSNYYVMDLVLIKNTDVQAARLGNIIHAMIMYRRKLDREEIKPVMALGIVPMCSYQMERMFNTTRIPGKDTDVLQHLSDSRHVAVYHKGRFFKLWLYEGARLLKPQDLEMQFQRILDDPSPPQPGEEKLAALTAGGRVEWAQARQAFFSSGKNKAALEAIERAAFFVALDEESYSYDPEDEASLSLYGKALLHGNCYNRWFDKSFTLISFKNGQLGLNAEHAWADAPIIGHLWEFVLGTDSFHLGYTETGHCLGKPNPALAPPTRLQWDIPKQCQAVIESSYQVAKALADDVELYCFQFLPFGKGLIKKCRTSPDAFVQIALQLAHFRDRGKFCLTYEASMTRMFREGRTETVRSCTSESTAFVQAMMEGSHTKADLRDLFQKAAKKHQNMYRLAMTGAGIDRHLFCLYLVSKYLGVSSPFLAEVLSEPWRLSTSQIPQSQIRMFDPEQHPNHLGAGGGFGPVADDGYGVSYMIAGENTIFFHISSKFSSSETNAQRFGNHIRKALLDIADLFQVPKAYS

[4] = Inhibition of human FAO
[5] = biological target: T3, Carnitine O-palmitoyltransferase 1, liver isoform (Homo sapiens, UniProt P50416); experiment: Inhibition of human CPT1A
T3 sequence (P50416 whole entry): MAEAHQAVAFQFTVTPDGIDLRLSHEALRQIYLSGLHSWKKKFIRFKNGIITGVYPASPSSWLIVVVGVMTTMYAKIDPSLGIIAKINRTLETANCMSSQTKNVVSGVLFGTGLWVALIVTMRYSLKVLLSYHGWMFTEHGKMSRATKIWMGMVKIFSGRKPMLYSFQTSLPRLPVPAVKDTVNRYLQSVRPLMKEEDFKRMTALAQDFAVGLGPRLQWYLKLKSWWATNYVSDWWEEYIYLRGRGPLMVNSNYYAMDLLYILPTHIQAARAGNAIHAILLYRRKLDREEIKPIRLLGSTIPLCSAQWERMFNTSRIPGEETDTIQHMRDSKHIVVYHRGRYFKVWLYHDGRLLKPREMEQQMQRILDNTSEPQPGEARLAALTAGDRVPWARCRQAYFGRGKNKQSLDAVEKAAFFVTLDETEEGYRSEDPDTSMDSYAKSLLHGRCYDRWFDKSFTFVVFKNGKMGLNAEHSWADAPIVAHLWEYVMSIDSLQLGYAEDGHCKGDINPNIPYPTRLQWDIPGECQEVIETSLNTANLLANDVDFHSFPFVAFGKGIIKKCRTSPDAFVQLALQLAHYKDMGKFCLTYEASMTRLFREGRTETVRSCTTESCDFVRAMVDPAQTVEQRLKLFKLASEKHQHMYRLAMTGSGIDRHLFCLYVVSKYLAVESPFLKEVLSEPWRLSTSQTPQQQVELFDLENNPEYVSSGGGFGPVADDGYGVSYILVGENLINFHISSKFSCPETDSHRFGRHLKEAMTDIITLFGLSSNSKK

[6] = biological target: T4, Carnitine O-palmitoyltransferase 2, mitochondrial (Homo sapiens, UniProt P23786); experiment: Inhibition of human CPT2
T4 sequence (P23786 whole entry): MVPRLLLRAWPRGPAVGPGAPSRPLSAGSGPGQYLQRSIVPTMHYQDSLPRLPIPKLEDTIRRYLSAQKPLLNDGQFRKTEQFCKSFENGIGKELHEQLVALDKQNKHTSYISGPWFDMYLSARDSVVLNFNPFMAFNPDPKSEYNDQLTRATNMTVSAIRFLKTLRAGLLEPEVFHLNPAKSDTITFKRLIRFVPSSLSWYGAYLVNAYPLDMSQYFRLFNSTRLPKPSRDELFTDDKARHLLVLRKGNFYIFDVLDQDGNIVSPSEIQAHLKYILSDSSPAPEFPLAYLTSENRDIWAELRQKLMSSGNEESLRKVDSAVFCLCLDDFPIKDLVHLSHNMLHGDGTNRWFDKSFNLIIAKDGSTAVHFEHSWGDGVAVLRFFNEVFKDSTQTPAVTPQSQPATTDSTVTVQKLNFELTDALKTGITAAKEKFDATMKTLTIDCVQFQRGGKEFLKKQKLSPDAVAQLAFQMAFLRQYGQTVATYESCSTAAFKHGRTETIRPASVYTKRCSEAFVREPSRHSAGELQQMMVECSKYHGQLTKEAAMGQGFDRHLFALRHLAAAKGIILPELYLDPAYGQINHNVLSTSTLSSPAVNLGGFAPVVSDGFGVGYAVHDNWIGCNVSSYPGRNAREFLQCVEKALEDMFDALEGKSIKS

[7] = biological target: T5, Carnitine O-palmitoyltransferase 2, mitochondrial (Rattus norvegicus, UniProt P18886); experiment: Inhibition of rat CPT2
T5 sequence (P18886 whole entry): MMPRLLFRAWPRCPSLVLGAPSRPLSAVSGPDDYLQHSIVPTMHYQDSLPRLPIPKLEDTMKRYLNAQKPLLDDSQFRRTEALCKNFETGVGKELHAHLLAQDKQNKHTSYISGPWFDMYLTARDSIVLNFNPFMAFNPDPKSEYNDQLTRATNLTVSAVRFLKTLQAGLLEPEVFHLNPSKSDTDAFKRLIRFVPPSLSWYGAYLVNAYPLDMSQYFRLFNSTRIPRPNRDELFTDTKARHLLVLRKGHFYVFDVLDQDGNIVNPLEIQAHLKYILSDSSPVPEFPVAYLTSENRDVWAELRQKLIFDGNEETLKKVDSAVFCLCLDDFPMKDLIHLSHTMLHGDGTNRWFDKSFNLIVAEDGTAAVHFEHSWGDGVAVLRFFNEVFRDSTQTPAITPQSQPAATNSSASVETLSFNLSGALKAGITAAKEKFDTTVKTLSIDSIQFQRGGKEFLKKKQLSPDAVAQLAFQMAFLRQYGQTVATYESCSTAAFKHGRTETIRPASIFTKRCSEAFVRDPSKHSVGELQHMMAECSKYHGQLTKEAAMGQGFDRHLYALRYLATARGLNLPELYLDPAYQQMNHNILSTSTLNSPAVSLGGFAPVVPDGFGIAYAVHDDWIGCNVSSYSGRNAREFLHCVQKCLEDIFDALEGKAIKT

[8] = biological target: T3, Carnitine O-palmitoyltransferase 1, liver isoform; experiment: Inhibition of CPT1A
[9] = biological target: T2, Carnitine O-palmitoyltransferase 1, muscle isoform; experiment: Inhibition of CPT1B
[10] = Inhibition of carnitine palmitoyltransferase in rat heart mitochondria assessed as conversion of [14C]palmitic acid to [14C]palmitoylcarnitine by radiometric assay
[11] = Inhibition of carnitine palmitoyltransferase in rat liver mitochondria assessed as conversion of [14C]palmitic acid to [14C]palmitoylcarnitine by radiometric assay
[12] = biological target: T5, Carnitine O-palmitoyltransferase 2, mitochondrial; experiment: Inhibition of rat CPT2 using [3H]carnitine by radiometric assay
[13] = biological target: T6, Carnitine O-palmitoyltransferase 1, liver isoform (Rattus norvegicus, UniProt P32198); experiment: Inhibition of rat CPT1A using [3H]carnitine by radiometric assay
T6 sequence (P32198 whole entry): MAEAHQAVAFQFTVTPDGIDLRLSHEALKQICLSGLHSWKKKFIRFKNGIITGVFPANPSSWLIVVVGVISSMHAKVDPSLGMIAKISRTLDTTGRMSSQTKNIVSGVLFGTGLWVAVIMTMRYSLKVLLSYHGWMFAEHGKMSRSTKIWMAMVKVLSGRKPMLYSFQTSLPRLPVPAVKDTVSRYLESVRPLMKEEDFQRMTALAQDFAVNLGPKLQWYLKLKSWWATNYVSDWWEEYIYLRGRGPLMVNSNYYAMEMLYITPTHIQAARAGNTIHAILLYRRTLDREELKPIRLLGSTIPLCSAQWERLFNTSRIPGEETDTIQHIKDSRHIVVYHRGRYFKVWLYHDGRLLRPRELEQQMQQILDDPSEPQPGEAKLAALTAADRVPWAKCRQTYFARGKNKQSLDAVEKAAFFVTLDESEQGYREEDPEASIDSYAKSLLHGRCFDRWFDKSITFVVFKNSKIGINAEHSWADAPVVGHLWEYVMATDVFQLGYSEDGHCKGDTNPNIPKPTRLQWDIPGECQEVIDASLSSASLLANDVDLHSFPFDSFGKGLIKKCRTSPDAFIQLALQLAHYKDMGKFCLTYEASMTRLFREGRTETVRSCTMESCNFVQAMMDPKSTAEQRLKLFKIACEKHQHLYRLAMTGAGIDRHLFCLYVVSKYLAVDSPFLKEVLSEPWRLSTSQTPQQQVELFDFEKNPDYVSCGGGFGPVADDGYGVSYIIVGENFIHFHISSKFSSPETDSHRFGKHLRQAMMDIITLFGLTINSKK

| IC50 [3] | IC50 [5] | IC50 [6] | IC50 [7] | SMILES | also measured |
| --- | --- | --- | --- | --- | --- |
| 0.16 µM | 2.4 µM | 4.7 µM | > 100 µM | O=C(O)C(=O)c1ccc(OCCOc2ccc3ccccc3c2)s1 | IC50 [2]: > 100 µM; IC50 [4]: 25.5 µM |
| > 100 µM | 0.021 µM | 0.74 µM | 3.2 µM | COc1ccc(Cl)cc1S(=O)(=O)N1CCc2ccc(C(=O)Nc3ccc(C(=O)O)cc3)cc21 |  |
| 3.5 µM | 0.16 µM | 2.8 µM | 16.7 µM | COc1ccc(C)cc1S(=O)(=O)N1CCCc2ccc(C(=O)Nc3ccc(CC(=O)O)cc3)cc21 |  |
| > 100 µM | 0.065 µM |  | > 100 µM | COc1ccc(-c2noc([C@H]3CCCCN3C(=O)COc3ccccc3)n2)cc1 |  |

Continued, compound first:

| SMILES | IC50 [3] | IC50 [5] | IC50 [6] | IC50 [7] | also measured |
| --- | --- | --- | --- | --- | --- |
| CCCCCCCC(=O)O[C@@H](CC(=O)[O-])C[N+](C)(C)C |  |  |  |  | IC50 [1]: 35 µM |
| CCCCCCCC[C@H]1OC(=O)C(CSCCNC(=O)CCNC(=O)[C@H](O)C(C)(C)COP(=O)(O)OP(=O)(O)OC[C@H]2O[C@@H](n3cnc4c(N)ncnc43)[C@H](O)[C@@H]2OP(=O)(O)O)[C@@H]1C(=O)O (some centres not stated) |  |  |  |  | IC50 [8]: 0.24 µM; IC50 [9]: 0.36 µM |
| O=C(COc1ccccc1)N1CCCC[C@@H]1c1nc(-c2ccccn2)cs1 | > 100 µM | 0.02 µM | 4.8 µM | 30.7 µM |  |
| CCCCCCCCCCCNS(=O)(=O)N[C@H](CC(=O)[O-])C[N+](C)(C)C |  |  |  |  | IC50 [10]: 5.8 µM; IC50 [11]: 0.8 µM |
| O=C(O)[C@@]1(CCCCCCOc2ccccc2)CO1 [DECHLOROETOMOXIR] |  |  |  |  | IC50 [2]: 4.4 µM; IC50 [4]: 1.8 µM |
| N[C@H](C(=O)O)c1ccc(O)cc1 [OXFENICINE] | > 100 µM | > 100 µM | > 100 µM |  | IC50 [2]: > 100 µM; IC50 [4]: > 100 µM |
| O=C(O)C1(C(F)(F)CCCCCOc2ccc(Cl)cc2)CO1 (configuration not stated) |  |  |  |  | IC50 [8]: 0.25 µM; IC50 [9]: > 50 µM |
| CCCCCCCCCCCCCCCC1(O)C[N+](C)(C)CC(CC(=O)[O-])O1 (stereo in doubt; (-)-27) |  |  |  |  | IC50 [12]: 6.7 µM; IC50 [13]: 15.5 µM |
